The record followed here is ChEMBL document CHEMBL3638468, “Amides of acetic and propionic acids” (2015).

For this experiment, the target named is Neuronal acetylcholine receptor subunit alpha-7 (Rattus norvegicus, UniProt Q05941). Nature of the experiment: Binding Assay: Rat brain tissue (hippocampus or whole brain) is homogenized in homogenization buffer (10% w/v). [0.32 M sucrose, 1 mM EDTA; 0.1 mM phenylmethylsulfonyl fluoride (PMSF), 0.01% (w/v) NaN3, pH 7.4, 4 C.] at 600 rpm in a glass homogenizer. The homogenate is centrifuged (1000xg, 4 C., 10 min) and the supernatant is removed. The pellet is resuspended (20% w/v) and the suspension is centrifuged (1000xg, 4 C., 10 mM). The two supernatants are combined and centrifuged (15 000xg, 4 C., 30 min). The pellet obtained in this way is referred to as the P2 fraction.The P2 pellet is washed twice with binding buffer (50 mM Tris-HCl, 1 mM MgCl2, 120 mM NaCl, 5 mM KCl, 2 mM CaCl2, pH 7.4), and centrifuged (15 000xg, 4 C., 30 min).The P2 membranes are resuspended in binding buffer and incubated in a volume of 250 ul (amount of membrane protein 0.1-0.5 mg) in the presence of 1-5 nM [3H]methyllycaconitine, 0.1% (w/v) BSA (bovine serum albumin) and various concentrations of the test substance. The format is tissue-based.
Neuronal acetylcholine receptor subunit alpha-7, sequence (Q05941 whole entry): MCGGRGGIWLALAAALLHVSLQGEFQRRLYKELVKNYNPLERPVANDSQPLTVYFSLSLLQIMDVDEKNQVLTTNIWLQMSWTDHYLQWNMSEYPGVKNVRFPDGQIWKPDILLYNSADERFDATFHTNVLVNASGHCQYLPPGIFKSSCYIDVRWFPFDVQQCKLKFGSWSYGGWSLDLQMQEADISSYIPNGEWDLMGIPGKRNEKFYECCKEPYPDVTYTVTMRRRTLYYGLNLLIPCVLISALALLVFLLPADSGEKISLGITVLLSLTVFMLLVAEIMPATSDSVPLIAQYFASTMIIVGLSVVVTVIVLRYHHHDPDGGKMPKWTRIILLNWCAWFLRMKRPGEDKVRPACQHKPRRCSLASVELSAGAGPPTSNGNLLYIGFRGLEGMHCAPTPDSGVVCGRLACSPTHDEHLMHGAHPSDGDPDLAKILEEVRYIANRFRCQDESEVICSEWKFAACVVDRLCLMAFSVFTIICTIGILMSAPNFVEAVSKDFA

On to `O=C(CC1CN2CCC1CC2)Nc1cc2ccc(Br)cc2s1` (stereo unspecified), for which the Ki amounted to 0.2 µM.

Broadly, the Ki is the equilibrium dissociation constant of an inhibitor or competing ligand from its target.
